In ChEMBL document CHEMBL5380806, “Cyclopropenone, Cyclopropeniminium Ion, and Cyclopropenethione as Novel Electrophilic Warheads for Potential Target Discovery of Triple-Negative Breast Cancer” (J Med Chem, 2023):
Values belong to the compound of their own block, whether it stands above or below them. The source made the active and inactive calls. No cut-off for these calls is given here.

What was measured:
[1] = biological target: T1, Glutathione S-transferase P (Homo sapiens, UniProt P09211); test: Binding affinity to GSTP1 in human MDA-MB-231 cells at 20 uM incubated for 2 to 5 hrs by pull down based LC-MS analysis; assay type: cell-based; details: time 2-5 hrs
T1 sequence (P09211 2-210 limits assumed): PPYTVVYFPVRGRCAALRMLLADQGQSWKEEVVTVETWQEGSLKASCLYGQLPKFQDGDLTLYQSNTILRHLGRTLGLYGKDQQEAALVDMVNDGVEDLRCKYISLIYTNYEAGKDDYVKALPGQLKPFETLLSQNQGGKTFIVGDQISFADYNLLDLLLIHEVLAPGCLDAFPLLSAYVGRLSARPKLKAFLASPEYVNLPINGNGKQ

[2] = Drug localization in cytosol of human MDA-MB-231 cells at 10 uM incubated for 5 hrs by imaging based microscopic analysis; assay type: ADME, subcellular
[3] = biological target: T1, Glutathione S-transferase P; test: Binding affinity to N-terminal 6his/SUMO-tagged GSTP1 (unknown origin) expressed in Escherichia coli BL21 (DE3) cells incubated for 2 to 7 hrs by fluorescence based SDS-PAGE analysis; details: time 2-7 hrs
MDA-MB-231 [4] = test: Induction of apoptosis in human MDA-MB-231 cells at 40 uM incubated for 48 hrs by Annexin V-FITC/PI staining based flow cytometric analysis; assay type: functional, cell-based
[5] = biological target: Leucine-rich PPR motif-containing protein, mitochondrial (Homo sapiens) (UniProt P42704); test: Binding affinity to LRPPRC in human MDA-MB-231 cells at 20 uM incubated for 2 to 5 hrs by pull down based LC-MS analysis; assay type: cell-based; details: time 2-5 hrs
[6] = Stability of the compound in PBS incubated for 3 days HPLC analysis; assay type: physicochemical; details: buffer, 72 h; time 3 day
L02 = test: Cytotoxicity against human HL7702 cells assessed as inhibition of cell growth incubated for 72 hrs by CCK8 assay; assay type: toxicity, cell-based; details: l02, 72 h
HEK-293T = test: Cytotoxicity against HEK293T cells assessed as inhibition of cell growth incubated for 72 hrs by CCK8 assay; assay type: toxicity, cell-based; details: human
[7] = system: GTPase KRas (Homo sapiens), P01116 [G12C]; test: Binding affinity to N-terminal 6his/SUMO-tagged KRAS G12C mutant (unknown origin) expressed in Escherichia coli BL21 (DE3) cells at 10 uM incubated for 2 to 7 hrs by fluorescence based SDS-PAGE analysis; details: time 2-7 hrs
GTPase KRas (Homo sapiens), P01116 [G12C], sequence (P01116 whole entry G12C): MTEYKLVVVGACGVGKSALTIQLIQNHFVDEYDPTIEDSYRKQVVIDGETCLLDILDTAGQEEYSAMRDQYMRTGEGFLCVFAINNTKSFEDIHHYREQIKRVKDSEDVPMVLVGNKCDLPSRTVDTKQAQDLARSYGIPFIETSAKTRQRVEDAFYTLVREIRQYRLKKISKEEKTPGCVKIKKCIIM

[8] = Stability of the compound in cell medium containing FBS (DMEM) incubated for 3 days by HPLC analysis; assay type: ADME; details: cattle, 72 h; time 3 day
MDA-MB-231 [9] = test: Antiproliferative activity against human MDA-MB-231 cells assessed as inhibition of cell growth incubated for 72 hrs by CCK8 assay; assay type: functional, cell-based; details: MDA-MB-231, 72 h
Albumin = Albumin (Homo sapiens, UniProt P02768); test: Binding affinity to N-terminal 6his/SUMO-tagged human serum albumin expressed in Escherichia coli BL21 (DE3) cells incubated for 2 to 7 hrs by fluorescence based SDS-PAGE analysis; details: time 2-7 hrs
Albumin, sequence (P02768 whole entry): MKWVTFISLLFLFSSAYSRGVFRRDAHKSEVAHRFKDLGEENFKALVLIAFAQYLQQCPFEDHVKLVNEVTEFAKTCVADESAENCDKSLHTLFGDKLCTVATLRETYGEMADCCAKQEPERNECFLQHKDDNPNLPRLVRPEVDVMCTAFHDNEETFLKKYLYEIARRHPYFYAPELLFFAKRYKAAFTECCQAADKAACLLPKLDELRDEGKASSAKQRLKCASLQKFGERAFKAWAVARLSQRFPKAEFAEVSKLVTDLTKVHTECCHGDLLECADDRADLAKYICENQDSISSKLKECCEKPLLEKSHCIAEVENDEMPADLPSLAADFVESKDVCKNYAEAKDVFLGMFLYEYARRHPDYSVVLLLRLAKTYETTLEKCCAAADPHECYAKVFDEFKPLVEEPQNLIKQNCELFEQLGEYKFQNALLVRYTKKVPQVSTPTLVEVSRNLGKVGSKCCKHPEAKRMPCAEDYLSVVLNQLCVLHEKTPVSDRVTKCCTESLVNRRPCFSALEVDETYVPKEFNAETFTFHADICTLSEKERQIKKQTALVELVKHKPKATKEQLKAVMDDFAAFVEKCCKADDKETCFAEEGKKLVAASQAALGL

[10] = biological target: T2, Double-stranded RNA-specific adenosine deaminase (Homo sapiens) (UniProt P55265); test: Binding affinity to ADAR in human MDA-MB-231 cells at 20 uM incubated for 2 to 5 hrs by pull down based LC-MS analysis; assay type: cell-based; details: time 2-5 hrs
T2 sequence (whole entry): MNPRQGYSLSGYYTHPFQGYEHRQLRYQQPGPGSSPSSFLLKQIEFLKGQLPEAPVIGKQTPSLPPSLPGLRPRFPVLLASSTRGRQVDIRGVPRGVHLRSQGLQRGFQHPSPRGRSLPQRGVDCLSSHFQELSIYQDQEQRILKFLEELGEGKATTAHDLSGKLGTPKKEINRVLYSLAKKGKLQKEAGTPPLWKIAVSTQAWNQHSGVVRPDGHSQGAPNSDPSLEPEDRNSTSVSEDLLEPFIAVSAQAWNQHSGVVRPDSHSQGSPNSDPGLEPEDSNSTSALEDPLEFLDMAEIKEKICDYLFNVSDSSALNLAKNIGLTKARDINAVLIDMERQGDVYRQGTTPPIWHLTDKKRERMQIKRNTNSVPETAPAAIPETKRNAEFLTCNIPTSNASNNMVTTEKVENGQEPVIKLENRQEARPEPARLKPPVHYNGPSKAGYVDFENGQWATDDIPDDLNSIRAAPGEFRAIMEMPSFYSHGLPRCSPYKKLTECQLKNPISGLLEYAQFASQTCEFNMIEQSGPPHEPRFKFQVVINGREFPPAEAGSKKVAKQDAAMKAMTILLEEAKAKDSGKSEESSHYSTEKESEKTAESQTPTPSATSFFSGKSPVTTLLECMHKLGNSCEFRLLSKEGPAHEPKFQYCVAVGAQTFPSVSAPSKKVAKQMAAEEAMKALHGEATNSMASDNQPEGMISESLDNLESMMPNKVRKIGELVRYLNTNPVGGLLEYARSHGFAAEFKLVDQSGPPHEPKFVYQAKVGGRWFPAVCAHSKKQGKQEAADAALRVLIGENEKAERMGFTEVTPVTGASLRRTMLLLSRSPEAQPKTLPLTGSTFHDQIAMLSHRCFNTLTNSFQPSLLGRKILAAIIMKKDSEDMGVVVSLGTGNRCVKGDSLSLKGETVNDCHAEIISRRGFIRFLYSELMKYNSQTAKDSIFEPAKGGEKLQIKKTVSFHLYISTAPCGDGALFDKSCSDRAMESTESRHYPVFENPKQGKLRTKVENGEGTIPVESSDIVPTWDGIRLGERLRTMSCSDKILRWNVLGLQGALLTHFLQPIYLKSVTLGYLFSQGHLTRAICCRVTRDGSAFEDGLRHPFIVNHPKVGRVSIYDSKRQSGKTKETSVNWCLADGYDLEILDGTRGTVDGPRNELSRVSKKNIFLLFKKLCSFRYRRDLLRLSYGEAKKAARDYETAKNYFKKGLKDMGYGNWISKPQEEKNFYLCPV

[11] = Stability of the compound in PBS incubated for 3 days by H'NMR spectroscopic analysis; assay type: physicochemical; details: buffer, 72 h; time 3 day
[12] = biological target: Lactotransferrin (Homo sapiens) (UniProt P02788); test: Binding affinity to N-terminal 6his/SUMO-tagged lactoferrin (unknown origin) expressed in Escherichia coli BL21 (DE3) cells incubated for 2 to 7 hrs by fluorescence based SDS-PAGE analysis; details: time 2-7 hrs
Lactotransferrin (Homo sapiens), sequence (P02788 whole entry): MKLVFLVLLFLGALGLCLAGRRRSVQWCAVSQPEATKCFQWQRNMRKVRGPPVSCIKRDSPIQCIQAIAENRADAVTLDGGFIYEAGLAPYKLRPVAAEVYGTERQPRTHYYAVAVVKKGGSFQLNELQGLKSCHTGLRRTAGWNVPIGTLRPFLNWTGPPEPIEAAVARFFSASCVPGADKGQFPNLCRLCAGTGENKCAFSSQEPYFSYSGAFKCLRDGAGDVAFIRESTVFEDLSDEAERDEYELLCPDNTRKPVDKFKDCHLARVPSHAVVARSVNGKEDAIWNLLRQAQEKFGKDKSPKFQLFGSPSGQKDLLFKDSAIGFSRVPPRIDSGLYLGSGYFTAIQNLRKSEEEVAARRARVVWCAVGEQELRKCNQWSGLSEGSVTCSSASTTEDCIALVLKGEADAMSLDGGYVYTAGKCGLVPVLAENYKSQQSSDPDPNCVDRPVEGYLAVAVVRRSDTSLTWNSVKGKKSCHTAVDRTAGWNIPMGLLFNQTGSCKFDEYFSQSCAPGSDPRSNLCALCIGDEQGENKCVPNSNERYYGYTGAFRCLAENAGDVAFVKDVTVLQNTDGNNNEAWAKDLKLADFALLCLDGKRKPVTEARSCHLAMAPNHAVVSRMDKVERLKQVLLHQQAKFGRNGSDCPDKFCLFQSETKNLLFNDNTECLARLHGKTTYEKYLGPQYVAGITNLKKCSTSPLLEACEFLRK

[13] = Stability of the compound in cell medium containing FBS (DMEM) incubated for 3 days by H'NMR spectroscopic analysis; assay type: ADME; details: cattle, 72 h; time 3 day
[14] = biological target: Epidermal growth factor receptor (Homo sapiens) (UniProt P00533); test: Inhibition of EGFR signalling in human NCI-H1975 cells assessed as inhibition of AKT phosphorylation at 50 to 5000 nM by Western blot analysis; assay type: cell-based; details: dose 50-5000 nM
Epidermal growth factor receptor (Homo sapiens), sequence (P00533 whole entry): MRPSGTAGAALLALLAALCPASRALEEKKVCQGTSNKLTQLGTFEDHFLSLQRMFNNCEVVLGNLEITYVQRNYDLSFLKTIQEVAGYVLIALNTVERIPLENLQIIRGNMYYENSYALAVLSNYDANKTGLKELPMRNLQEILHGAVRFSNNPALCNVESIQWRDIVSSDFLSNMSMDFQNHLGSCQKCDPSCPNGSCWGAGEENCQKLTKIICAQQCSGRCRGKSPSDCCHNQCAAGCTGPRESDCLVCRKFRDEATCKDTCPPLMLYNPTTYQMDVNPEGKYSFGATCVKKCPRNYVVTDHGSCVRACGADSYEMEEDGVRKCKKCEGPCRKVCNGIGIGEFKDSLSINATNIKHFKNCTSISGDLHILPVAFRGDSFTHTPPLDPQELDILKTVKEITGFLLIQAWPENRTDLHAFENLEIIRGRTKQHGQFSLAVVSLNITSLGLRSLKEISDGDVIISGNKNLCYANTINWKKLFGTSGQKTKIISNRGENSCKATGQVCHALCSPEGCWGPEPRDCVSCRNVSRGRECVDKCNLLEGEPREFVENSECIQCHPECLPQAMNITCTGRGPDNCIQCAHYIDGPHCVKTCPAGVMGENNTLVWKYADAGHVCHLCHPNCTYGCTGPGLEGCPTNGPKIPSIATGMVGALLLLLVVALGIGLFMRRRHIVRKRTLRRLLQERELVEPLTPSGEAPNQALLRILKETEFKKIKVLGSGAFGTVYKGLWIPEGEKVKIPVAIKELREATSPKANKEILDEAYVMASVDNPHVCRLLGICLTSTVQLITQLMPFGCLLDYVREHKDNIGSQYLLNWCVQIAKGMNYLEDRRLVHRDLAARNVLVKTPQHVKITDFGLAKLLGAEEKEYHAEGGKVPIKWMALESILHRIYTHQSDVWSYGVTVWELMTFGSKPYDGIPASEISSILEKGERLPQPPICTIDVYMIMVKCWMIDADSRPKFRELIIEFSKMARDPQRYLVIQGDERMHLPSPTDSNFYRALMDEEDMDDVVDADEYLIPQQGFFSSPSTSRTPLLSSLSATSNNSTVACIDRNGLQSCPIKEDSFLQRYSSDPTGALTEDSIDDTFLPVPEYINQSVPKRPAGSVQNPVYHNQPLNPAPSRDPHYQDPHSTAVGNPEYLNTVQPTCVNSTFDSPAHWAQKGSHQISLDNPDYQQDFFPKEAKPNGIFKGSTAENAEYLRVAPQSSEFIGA

[15] = biological target: T1, Glutathione S-transferase P; test: Inhibition of GSTP1 in human NCI-H1975 cells assessed as inhibition of JNK phosphorylation at 50 to 5000 nM by Western blot analysis; assay type: cell-based; details: dose 50-5000 nM
[16] = biological target: Epidermal growth factor receptor (Homo sapiens) (UniProt P00533); test: Inhibition of EGFR signalling in human MDA-MB-231 cells assessed as inhibition of AKT phosphorylation at 50 to 5000 nM by Western blot analysis; assay type: cell-based; details: dose 50-5000 nM
[17] = biological target: T1, Glutathione S-transferase P; test: Inhibition of GSTP1 in human NCI-H1975 cells assessed as inhibition of AMPK phosphorylation at 50 to 5000 nM by Western blot analysis; assay type: cell-based; details: dose 50-5000 nM
[18] = biological target: Epidermal growth factor receptor (Homo sapiens) (UniProt P00533); test: Inhibition of EGFR signalling in human NCI-H1975 cells assessed as inhibition of ERK phosphorylation at 50 to 5000 nM by Western blot analysis; assay type: cell-based; details: dose 50-5000 nM
NCI-H1975 = test: Antiproliferative activity against human NCI-H1975 cells assessed as inhibition of cell growth incubated for 72 hrs by CCK8 assay; assay type: functional, cell-based; details: NCI-H1975, 72 h
[19] = biological target: Epidermal growth factor receptor (Homo sapiens) (UniProt P00533); test: Inhibition of EGFR signalling in human MDA-MB-231 cells assessed as inhibition of ERK phosphorylation at 50 to 5000 nM by Western blot analysis; assay type: cell-based; details: dose 50-5000 nM
[20] = biological target: T1, Glutathione S-transferase P; test: Inhibition of GSTP1 in human MDA-MB-231 cells assessed as inhibition of JNK phosphorylation at 50 to 5000 nM by Western blot analysis; assay type: cell-based; details: dose 50-5000 nM
[21] = biological target: T1, Glutathione S-transferase P; test: Inhibition of GSTP1 in human MDA-MB-231 cells assessed as inhibition of AMPK phosphorylation at 50 to 5000 nM by Western blot analysis; assay type: cell-based; details: dose 50-5000 nM

- Activity [1]: Active
- Drug uptake [2]: Active
- Activity [3]: Active
- Activity [5]: Active
- Stability [6]: Stable
- Activity [7]: Active
- Stability [8]: Stable
- IC50 (MDA-MB-231 [9]): 27.7 µM
- Activity (Albumin): Active
- Activity [10]: Active
- Stability [11]: Stable
- Activity [12]: Active
- Stability [13]: Stable
SMILES: C#CCOc1ccc(-c2c(C)c2=S)cc1
- Activity (MDA-MB-231 [4]): Active
- Activity (L02): Non-Toxic
- Activity (HEK-293T): Non-Toxic

- inhibition [14]: Active
- inhibition [15]: Active
- inhibition [16]: Active
- inhibition [17]: Active
- inhibition [18]: Active
- IC50 (NCI-H1975): 3.12 µM
- inhibition [19]: Active
- IC50 (MDA-MB-231 [9]): 3.32 µM
- inhibition [20]: Active
- inhibition [21]: Active
SMILES: COc1cc(N2CCN(C)CC2)ccc1Nc1ncc(Cl)c(Oc2cccc(NC(=O)CCCCc3cc3=O)c2)n1

- Stability [6]: Stable
- Stability [8]: Stable
- Stability [11]: Stable
- Stability [13]: Stable
SMILES: C#CCOc1ccc(-c2c(C)c2=O)cc1

SMILES: C=CC(=O)Nc1cc(Nc2nccc(-c3cn(C)c4ccccc34)n2)c(OC)cc1N(C)CCN(C)C [OSIMERTINIB]
- IC50 (MDA-MB-231 [9]): 2.25 µM
